In this assay the target is T1, GPBAR1 (Homo sapiens, UniProt Q8TDU6).
T1 construct: expressed in transfected cells; host or cells: HEK-293T
T1 sequence (Q8TDU6 1-330): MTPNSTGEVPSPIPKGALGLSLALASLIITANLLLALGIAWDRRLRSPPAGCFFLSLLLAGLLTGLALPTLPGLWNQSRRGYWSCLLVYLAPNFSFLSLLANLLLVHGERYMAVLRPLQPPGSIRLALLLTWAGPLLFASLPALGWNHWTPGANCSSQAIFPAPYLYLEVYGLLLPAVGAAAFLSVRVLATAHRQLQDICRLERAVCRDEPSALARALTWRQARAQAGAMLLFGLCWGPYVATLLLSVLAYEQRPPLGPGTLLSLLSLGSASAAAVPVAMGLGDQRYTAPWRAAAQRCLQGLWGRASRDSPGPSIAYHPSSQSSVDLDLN
Description: Luciferase reporter (CRE) transactivation assay in HEK-293T cells transfected with GPBAR1. The assay is classed as cell-based. The following applies: for Emax at 10 µM: HEK-293T, maximal transactivation of CRE, compound 10 μM vs TLCA 10 μM = 100%, read-out: Efficacy (% vs TLCA). Here is the method:
The activity of compounds 1–14 on GPBAR1 was evaluated in a luciferase reporter assay using HEK-293T cells transfected with GPBAR1. The efficacy of tested compounds (Table 1) was measured using taurolithocholic acid (TLCA) as GPBAR1 reference compound[10],[11]. Each compound was tested at the concentration of 10 μM and transactivation activity of TLCA on a cAMP responsive element (CRE) (i.e. TGR5/GPBAR1) was considered equal to 100%. […] Thus, 9 and 10 (Table 1) turned out to be the most promising derivatives considering their low EC50 values and high activity efficacy. To further characterize the pharmacological properties of these compounds, we expanded their in vitro profile to common off-targets for bile acid receptor ligands.
Transactivation assay on HEK-293T cells was performed to investigate GPBAR1 activation, using compound 1–14 and TLCA as positive control at 10 µM, as previously reported.
Supplementary Figure S4. HEK-293T cells were transiently transfected with GPBAR1 and a reporter gene containing a cAMP responsive element in front of the luciferase gene. Cells were stimulated with compounds A-L (10 μM). TLCA (10 μM) was used as positive control. Luciferase activity served as a measure of the rise in intracellular cAMP following activation of GPBAR1. In all panels, results are expressed as mean ± standard error. ^∗p < 0.05 versus not treated cells (NT).
Background: Reporter assays use an easily measured gene product as a stand-in for the process of interest.

On to `O[C@H]1CN[C@H](c2nc(-c3ccccc3)no2)C1` [Compound 1], for which the Emax at 10 µM was 58 to 121%.
Same read-out and setting: to `O=C(NCc1ccccc1)N[C@@H]1CN[C@H](c2nc(-c3ccccc3)no2)C1` [Compound 11] belongs 58 to 121%; to `Cc1ccc(NC(=O)N[C@@H]2CN[C@H](c3nc(-c4ccccc4)no3)C2)cc1` [Compound 6], 58 to 121%.
In the case of `O=C(Nc1ccc(C(F)(F)F)cc1)N[C@@H]1CN[C@H](c2nc(-c3ccccc3)no2)C1` [Compound 4], the Emax at 10 µM is 58 to 121%. Besides, under “10 μM, compared to TLCA”, the “GPBAR1 agonist activity in transactivation assay” value was “moderate GPBAR1 agonist activity”.
As to `[N-]=[N+]=N[C@@H]1CN[C@H](c2nc(-c3ccccc3)no2)C1` [Compound 2], the Emax at 10 µM was 58 to 121%.
On the same count and under the same terms, the figure for `N[C@@H]1CN[C@H](c2nc(-c3ccccc3)no2)C1` [Compound 3] is 58 to 121%.
